Test results: BindingDB's records for PubMed 34355178 (n/a, 2021)

Molecular target: T1, Toll-like receptor 7 (Homo sapiens, UniProt Q9NYK1)
T1 sequence (Q9NYK1 whole entry): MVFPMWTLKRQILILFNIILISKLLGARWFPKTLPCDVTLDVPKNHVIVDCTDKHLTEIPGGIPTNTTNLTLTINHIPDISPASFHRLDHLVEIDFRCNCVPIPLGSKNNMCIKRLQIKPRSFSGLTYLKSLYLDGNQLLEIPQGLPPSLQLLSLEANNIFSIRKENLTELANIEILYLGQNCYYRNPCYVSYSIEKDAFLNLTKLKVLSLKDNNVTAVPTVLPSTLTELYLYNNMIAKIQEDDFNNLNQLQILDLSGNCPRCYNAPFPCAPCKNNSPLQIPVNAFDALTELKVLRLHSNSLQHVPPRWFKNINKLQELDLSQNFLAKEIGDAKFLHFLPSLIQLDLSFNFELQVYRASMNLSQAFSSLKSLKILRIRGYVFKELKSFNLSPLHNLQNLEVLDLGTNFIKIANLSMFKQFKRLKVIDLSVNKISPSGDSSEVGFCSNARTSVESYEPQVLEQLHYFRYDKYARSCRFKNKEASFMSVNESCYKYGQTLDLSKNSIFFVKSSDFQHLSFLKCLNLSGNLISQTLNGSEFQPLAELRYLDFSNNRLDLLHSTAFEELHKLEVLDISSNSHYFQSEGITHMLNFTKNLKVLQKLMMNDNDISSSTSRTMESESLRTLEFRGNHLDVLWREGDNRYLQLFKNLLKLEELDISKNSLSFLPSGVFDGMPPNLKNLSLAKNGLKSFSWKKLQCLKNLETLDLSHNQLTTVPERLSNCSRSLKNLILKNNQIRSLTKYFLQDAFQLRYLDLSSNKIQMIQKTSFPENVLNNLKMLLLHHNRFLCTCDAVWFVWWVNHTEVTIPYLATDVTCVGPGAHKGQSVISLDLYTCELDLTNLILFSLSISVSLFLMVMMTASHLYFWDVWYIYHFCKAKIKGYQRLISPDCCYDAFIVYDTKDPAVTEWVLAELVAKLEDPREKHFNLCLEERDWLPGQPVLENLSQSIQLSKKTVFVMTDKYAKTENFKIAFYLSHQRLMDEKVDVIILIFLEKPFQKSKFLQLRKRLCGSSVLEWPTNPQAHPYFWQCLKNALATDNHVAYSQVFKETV
Test: Agonist activity at human TLR7 in HEK-Blue hTLR7 cells assessed as activation of NFkappaB by SEAP reporter gene based spectrophotometry assay

Row | EC50 [µM] | SMILES
1 | 8.19 | CCCc1nc2c(N)nc3ccc(N)cc3c2s1
2 | 8.11 | CC[C@H](C)c1nc2c(N)nc3ccccc3c2s1
